Data reported in US20240174718A1, “RYANODINE RECEPTOR INHIBITOR COMPOUNDS AND METHODS RELATING THERETO” (Vanderbilt University, priority 2022, published 2024).
pIC50: −log10 of the molar value. Where “and” joins values, the source holds several entries; their conditions need not be identical. Equal values may be shown once.

Columns and labels:
[1] = biological target: T1, RyR2 (Sus scrofa, UniProt A0A5G2R1W3); assay: [3H]ryanodine ligand binding assay in cardiac SR vesicles; parameters: species or system porcine; details: relative to vehicle (DMSO)
T1 construct: isolated SR vesicles derived from porcine cardiac muscle; from tissue; host or cells: porcine heart (cardiac sarcoplasmic reticulum vesicles)
Method: RyR2 activity was quantified by the fraction of [^3H]ryanodine bound to RyR2. […] Data are shown as mean±SD (n=6).
[^3H]ryanodine ligand binding assay—[^3H]ryanodine, [9,21-3H(N)] (56 Ci/mmol) was obtained from PerkinElmer. Porcine cardiac SR vesicles were isolated as previously described (Fruen et al., 2000) and incubated with, 200 nM CaM binding peptide, 0.1 μM CaCl2, 20 mM PIPES, 150 mM KCl, 5 mM GSH, 0.1 mg/mL BSA, 1 μg/mL aprotininin, lug/mL leupeptin, and 1 μM DTT for 30 min at 37° C. […] In 96-well plates, cardiac SR membranes (CSR, 3 mg/mL) were pre-incubated with 1% v/v ent-B1 (to yield the indicated drug concentrations) for 30 min, at 22° C., in a solution containing 150 mM KCl, 5 mM GSH, 1 μg/mL Aprotinin/Leupeptin, 1 mM EGTA, and 23 μM or 1.62 mM CaCl2 (100 nM or 30 μM free Ca^2+, respectively as determined by MaxChelator), 0.1 mg/mL BSA, and 20 mM K-PIPES (pH 7.0). Non-specific [^3H]ryanodine binding to SR was assessed by addition of 15 μM non-radioactive ryanodine. Maximal [^3H]ryanodine binding was assessed by addition of 5 mM adenylyl-imidodiphosphate (AMP-PNP), supplemented with 20 mM caffeine. […] Binding of [^3H]ryanodine (7.5 nM) was determined following a 3 h incubation at 37° C. and filtration through grade GF/B glass microfiber filters (Brandel Inc., Gaithersburg, MD, US) using a M96T-Brandel Harvester. […]

[2] = biological target: T2, RyR2 (Mus musculus, UniProt E9Q401); assay: Intracellular Ca2+ measurements / spontaneous Ca2+ release in intact Casq2-/- cardiomyocytes; format: cell-based
T2 construct: spontaneous openings of intracellular RyR2 Ca^2+ release channels; endogenous in cells; host or cells: ventricular cardiomyocytes isolated from Casq2-/- mice (saponin-permeabilized in A1, intact in A7)
T2 sequence (E9Q401 whole entry): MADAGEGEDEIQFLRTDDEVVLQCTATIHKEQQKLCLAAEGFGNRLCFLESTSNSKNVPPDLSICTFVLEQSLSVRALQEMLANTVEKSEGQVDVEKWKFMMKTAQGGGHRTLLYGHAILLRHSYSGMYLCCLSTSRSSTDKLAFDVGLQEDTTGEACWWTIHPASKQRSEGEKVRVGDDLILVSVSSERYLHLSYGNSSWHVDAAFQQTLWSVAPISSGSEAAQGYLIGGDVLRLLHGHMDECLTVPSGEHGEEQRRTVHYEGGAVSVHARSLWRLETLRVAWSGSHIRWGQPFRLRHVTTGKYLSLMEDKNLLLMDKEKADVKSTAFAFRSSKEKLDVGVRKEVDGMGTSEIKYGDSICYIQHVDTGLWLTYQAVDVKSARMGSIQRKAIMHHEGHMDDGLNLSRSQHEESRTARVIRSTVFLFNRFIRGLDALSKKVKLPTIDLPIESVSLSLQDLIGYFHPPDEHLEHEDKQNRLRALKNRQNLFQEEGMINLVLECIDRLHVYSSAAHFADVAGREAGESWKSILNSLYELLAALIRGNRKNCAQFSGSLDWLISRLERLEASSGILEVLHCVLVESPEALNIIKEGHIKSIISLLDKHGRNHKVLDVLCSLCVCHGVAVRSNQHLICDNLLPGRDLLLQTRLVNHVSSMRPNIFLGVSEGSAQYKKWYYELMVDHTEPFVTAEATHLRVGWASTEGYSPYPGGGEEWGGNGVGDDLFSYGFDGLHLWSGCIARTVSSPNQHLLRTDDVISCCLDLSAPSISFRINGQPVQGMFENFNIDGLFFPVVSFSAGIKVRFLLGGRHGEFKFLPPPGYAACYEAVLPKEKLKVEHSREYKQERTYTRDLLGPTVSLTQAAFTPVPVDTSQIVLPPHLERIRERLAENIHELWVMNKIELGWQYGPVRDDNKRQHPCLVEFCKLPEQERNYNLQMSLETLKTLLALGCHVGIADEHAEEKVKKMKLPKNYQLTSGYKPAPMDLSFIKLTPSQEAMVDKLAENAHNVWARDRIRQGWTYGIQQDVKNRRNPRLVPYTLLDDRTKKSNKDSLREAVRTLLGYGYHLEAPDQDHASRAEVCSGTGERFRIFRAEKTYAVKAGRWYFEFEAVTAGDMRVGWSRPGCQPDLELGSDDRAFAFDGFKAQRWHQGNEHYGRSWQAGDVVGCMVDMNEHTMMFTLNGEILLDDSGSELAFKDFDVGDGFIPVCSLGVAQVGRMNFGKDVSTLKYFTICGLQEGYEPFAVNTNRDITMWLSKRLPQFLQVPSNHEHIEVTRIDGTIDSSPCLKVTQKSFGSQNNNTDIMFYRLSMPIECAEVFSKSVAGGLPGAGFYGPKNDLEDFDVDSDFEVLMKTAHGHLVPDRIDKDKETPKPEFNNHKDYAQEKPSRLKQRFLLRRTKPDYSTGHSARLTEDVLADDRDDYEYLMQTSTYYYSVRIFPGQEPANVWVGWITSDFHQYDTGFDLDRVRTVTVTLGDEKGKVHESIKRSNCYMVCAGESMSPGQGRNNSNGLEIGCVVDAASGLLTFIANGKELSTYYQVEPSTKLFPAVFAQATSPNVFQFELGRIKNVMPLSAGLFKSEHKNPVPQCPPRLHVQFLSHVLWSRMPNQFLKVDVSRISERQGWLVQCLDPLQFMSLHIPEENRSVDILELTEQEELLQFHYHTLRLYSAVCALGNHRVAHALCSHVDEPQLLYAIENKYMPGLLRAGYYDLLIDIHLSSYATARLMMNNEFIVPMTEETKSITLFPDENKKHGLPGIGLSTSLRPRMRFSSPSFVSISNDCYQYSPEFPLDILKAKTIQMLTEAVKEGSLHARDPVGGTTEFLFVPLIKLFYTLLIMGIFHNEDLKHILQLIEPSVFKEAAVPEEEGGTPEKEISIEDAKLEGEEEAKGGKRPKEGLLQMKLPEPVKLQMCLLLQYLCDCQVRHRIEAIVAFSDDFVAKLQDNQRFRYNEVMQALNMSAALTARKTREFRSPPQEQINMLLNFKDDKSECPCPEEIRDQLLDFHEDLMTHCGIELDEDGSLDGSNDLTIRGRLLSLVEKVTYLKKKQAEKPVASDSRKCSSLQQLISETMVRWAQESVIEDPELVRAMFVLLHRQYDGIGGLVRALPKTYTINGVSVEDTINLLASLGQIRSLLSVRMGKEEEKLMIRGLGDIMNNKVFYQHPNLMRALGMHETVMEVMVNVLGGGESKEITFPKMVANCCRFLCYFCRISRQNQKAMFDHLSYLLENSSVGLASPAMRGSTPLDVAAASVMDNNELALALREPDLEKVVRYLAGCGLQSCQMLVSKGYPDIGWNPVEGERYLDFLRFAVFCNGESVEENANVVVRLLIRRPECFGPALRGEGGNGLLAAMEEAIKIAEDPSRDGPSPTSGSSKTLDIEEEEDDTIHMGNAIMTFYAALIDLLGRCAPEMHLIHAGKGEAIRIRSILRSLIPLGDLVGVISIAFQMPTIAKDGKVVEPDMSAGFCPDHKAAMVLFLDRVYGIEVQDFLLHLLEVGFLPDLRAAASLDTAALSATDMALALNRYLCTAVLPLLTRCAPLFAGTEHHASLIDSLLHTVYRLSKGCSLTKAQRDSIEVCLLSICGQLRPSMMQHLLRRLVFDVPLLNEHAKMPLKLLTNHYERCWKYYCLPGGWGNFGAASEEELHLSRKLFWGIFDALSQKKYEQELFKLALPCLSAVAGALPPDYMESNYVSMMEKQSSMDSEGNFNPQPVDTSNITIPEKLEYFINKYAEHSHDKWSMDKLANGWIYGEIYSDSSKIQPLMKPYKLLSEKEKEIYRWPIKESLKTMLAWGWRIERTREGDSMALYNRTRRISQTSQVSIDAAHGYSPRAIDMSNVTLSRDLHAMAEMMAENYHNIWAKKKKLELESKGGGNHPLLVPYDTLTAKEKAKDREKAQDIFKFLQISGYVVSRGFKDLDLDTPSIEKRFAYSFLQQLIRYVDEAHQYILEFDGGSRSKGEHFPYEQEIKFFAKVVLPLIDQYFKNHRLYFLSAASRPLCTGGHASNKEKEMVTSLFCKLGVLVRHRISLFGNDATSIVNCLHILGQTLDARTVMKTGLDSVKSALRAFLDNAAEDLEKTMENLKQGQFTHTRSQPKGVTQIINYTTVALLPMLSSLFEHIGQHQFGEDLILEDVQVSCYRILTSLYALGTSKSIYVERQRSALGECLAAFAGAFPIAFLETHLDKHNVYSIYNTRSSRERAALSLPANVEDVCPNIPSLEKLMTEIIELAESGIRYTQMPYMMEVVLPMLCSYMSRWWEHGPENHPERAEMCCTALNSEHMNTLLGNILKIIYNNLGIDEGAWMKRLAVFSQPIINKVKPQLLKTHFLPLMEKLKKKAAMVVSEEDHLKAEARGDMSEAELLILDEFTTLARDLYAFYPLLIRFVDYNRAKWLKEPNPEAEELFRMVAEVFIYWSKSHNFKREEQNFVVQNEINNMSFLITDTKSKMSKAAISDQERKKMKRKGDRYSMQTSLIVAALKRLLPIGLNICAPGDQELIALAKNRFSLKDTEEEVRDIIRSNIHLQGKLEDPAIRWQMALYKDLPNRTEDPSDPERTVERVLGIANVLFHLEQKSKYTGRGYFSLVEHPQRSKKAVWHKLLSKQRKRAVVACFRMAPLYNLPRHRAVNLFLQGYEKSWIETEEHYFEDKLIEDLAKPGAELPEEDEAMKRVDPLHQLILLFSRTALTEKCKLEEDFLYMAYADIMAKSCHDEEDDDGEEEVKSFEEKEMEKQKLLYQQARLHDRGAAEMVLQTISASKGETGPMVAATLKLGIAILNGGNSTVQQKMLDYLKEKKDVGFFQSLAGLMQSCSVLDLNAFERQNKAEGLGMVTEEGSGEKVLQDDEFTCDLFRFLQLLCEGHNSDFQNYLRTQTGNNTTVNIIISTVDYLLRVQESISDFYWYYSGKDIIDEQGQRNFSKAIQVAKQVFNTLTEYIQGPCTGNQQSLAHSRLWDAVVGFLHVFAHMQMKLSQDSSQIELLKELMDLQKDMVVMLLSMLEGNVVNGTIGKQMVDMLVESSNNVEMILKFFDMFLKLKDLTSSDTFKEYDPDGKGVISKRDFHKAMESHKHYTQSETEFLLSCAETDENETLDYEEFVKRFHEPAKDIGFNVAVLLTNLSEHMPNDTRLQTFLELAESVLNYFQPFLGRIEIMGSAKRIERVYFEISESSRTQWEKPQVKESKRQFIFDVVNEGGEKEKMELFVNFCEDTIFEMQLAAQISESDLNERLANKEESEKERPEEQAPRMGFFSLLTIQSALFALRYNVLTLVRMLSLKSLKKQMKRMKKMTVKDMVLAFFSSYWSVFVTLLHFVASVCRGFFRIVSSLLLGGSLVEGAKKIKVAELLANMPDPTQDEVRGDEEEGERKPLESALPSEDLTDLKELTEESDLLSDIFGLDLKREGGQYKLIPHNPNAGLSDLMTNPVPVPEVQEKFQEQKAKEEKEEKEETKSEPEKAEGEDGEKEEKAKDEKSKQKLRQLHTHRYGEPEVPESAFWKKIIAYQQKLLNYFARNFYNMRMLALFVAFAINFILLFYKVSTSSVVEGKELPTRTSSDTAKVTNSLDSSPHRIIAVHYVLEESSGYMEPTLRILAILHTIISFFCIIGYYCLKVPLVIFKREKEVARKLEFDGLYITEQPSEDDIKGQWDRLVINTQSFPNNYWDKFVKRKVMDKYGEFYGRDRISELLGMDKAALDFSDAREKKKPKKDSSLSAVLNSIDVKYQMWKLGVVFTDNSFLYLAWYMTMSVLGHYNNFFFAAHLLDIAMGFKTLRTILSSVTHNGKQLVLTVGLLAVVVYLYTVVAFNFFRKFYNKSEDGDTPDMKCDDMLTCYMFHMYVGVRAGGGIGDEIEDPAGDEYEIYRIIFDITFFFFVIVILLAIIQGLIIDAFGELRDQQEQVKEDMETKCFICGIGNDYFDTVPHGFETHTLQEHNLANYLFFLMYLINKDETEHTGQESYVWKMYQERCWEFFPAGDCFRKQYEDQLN
Method: FIGS. 4(A-G) show intracellular Ca2+ measurements from intact Casq2−/− cardiomyocytes. […] For panels A-D and G, N=26, 30, 30, 30, and 31 cells for DMSO, 0.03, 0.1, 1, and 3 μM ent-B1, respectively. For panels E and F, N=14, 27, 29, 29, and 30 cells for DMSO, 0.03, 0.1, 1, and 3 μM ent-B1, respectively. Data are shown as mean±SD with individual data points.
FIGS. 10(A-B) show the spontaneous Ca^2+ release in intact mouse Casq2^−/− cardiomyocytes. […] Cells were field stimulated at 3 Hz for 20 s before recording. Blue marks indicate final stimulations of pacing train, arrows SCR events. Recording duration was 40 s before 10 mM caffeine application to assess total SR Ca^2+ content. […] Data are shown as mean±SD.
Intracellular Ca^2+ measurements in intact cardiomyocytes—Ventricular cardiomyocytes were isolated from two male 10-week old and one female 13-week old Casq2^−/− mouse as described previously (Knollmann et al., 2006). Cardiomyocytes were pre-incubated for 2 hours with DMSO or ent-B1. Myocytes were then loaded with Fura-2 acetoxymethyl ester (Fura-2 AM; Invitrogen) as described previously (Batiste et al., 2019). Briefly, isolated single ventricular myocytes were incubated with 2 μM Fura-2 AM for 7 minutes to load the indicator in the cytosol. Myocytes were then washed twice for 10 minutes with normal Tyrode (NT) solution containing 250 μM probenecid (all solutions also contained either vehicle [DMSO] or ent-B1). The composition of NT used for Fura-2 loading and washing was (in mM): 134 NaCl, 5.4 KCl, 1.2 CaCl2, 1 MgCl2, 10 glucose, and 10 HEPES, pH adjusted to 7.4 with NaOH. After Fura-2 loading, all experiments were conducted in NT solution containing 1 μM isoproterenol and 2 mM CaCl2. Fura2-loaded myocytes were electrically paced at 3 Hz field stimulation and Ca transients were recorded for 20 seconds followed by no electrical stimulation for 40 seconds to record spontaneous Ca release events. After that, myocytes were perfused with 10 mM caffeine in NT solution for 5 seconds to estimate total SR Ca content. Fura-2 was measured using a dual-beam excitation fluorescence photometry setup (IonOptix Corp.) and analyzed using commercially available data analysis software (IonWizard, IonOptix, Milton, MA). All experiments were conducted at room temperature.
All tests were two-sided and a p-value cutoff of <0.05 was used to denote significance. Concentration-response curves for RyR2 single-channel, [^3H]ryanodine ligand binding and intact myocyte assays were generated using non-linear regression with the equation: Y=Bottom+(Top−Bottom)/(1+(IC50/X)^HillSlope) using least square regression, no weighting, and no constrains on the parameters. The distributions of relative RyR2 open probability at each [ent-B1] were normalized by taking the log of each sample. For the 3×3 crossover in vivo ECG study, a pre-test was conducted using a mixed model with fixed effects of sequence and period; mice were treated as random effects.

[3] = 3 μM (only the highest concentration tested)

CCCCC[C@@H]1OC(=O)[C@@H](C)N(C)C(=O)[C@H](CCCCC)OC(=O)[C@@H](C)N(C)C(=O)[C@H](CCCCC)OC(=O)[C@@H](C)N(C)C1=O (single isomer, unassigned) [ent-B1]
pIC50 [1]: 5.72 and 5.71
Ca2+ decay kinetics (indicator of SERCA2 SR uptake rate) [2]: no effect
time-to-peak of Ca2+ transients [2]: no effect
amplitude of the caffeine-induced Ca2+ transient [2, 3]: reduced
amplitude of the systolic Ca2+ transient [2, 3]: reduced
diastolic Ca2+ levels [2, 3]: reduced
